Molecular target: wt human LRRK2, catalytic site (Homo sapiens (Human), UniProt Q5S007)
Experiment: TR-FRET LanthaScreen Tb Kinase Activity Assay (LRRK2 kinase inhibition)
Assay type: biochemical
Conditions: 2 nM wt human LRRK2, 400 nM fluorescein-ERM (LRRKtide) peptide, 38 μM ATP, 120 minutes at room temperature
Procedure: The compounds in Table 1 were tested for their inhibitory effect on LRRK2 kinase according to the following procedures.
The protocol for basic TR-FRET LanthaScreen Tb Kinase Activity Assay inhibitor studies were as follows. LanthaScreen Kinase Activity Assays (ThermoFisher/USA) to evaluate inhibitors were performed by addition of 100 nL of test compound in corresponding DMSO dilutions/5 μL of kinase/fluorescein-ERM(LRRKtide) peptide mixture, 5 μL of ATP into 384 well small volume plates. After incubation for 120 minutes at room temperature, the detection reagents containing Tb-anti-pLRRKtide antibody were added to monitor phosphrylation level of peptide. Then, after 60 min minutes incubation at room temperature plates were read in Envision. Data analysis of emission ratios was according to LanthaScreen Tb Kinase Activity Assay protocol.
Kinase and assay components were adjusted to final concentrations according to the kit protocol. For LRRK2: 2 nM wt human LRRK2, catalytic site, catalytic site (ThermoFisher/USA), 400 nM peptide, 38 μM ATP in 1× Kinase Buffer A.
Basic protocol for TR-FRET LanthaScreen Tb Kinase Activity Assay inhibitor studies involved two steps: • Enzymatic step: Addition of 100 nL of test compound in corresponding DMSO dilutions, 5 μL of kinase/substrate mixture, 5 μL of ATP into 384 well small volume plates. Incubation for 120 minutes at room temperature. • Detection step: Addition of 10 μL EDTA & antibody, read plate after 60 minutes. Data analysis of emission ratios according to KinEASE assay protocol.
Kinase and assay components were adjusted to final concentrations according to the kit protocol.
In the table below, activity is provided as follows: +++=IC50 less than 50 nM; ++=IC50 between 50 nM and 200 nM; +=IC50>=200 nM

Sequence of wt human LRRK2, catalytic site (Q5S007 1879-2138): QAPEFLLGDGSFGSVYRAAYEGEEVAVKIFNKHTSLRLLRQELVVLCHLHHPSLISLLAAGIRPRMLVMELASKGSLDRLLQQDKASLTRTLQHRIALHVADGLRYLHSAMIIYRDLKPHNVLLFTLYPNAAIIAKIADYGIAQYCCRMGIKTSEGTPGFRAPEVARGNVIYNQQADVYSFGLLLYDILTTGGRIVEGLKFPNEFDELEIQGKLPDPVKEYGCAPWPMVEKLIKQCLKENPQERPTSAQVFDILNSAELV

CNc1nc(Nc2ccc(OC)c3[nH]ncc23)ncc1C(F)(F)F [Example 28, N2-(7-methoxy-1H-indazol-4-yl)-N4-methyl-5-(trifluoromethyl)pyrimidine-2,4-diamine]
IC50: < 0.05 µM

CNc1nc(Nc2cccc3c2cnn3C(C)(C)C#N)nc2[nH]cnc12 [Example 202, 2-methyl-2-[4-[[6-(methylamino)-9H-purin-2-yl]amino]indazol-1-yl]propanenitrile]
IC50: < 0.05 µM

FC(F)(F)c1cnc(Nc2cccc3c2cnn3CC2CC2)nc1NC1CC1 [Example 168, N^4-cyclopropyl-N^2-(1-(cyclopropylmethyl)-1H-indazol-4-yl)-5-(trifluoromethyl)pyrimidine-2,4-diamine]
IC50: < 0.05 µM

CNc1nc(Nc2cnn3ccc(C#N)cc23)ncc1C(F)(F)F [Example 118, 3-[[4-(methylamino)-5-(trifluoromethyl)pyrimidin-2-yl]amino]pyrazolo[1,5-a]pyridine-5-carbonitrile]
IC50: < 0.05 µM

CNc1nc(Nc2cc3c(cnn3C)cc2C)ncc1C(F)(F)F [Example 13, N2-(1,5-dimethyl-1H-indazol-6-yl)-N4-methyl-5-(trifluoromethyl)pyrimidine-2,4-diamine]
IC50: < 0.05 µM

CC(C)(O)Cn1ncc2c(Nc3ncc(C(F)(F)F)c(NC4CC4)n3)cccc21 [Example 146, 1-[4-[[4-(cyclopropylamino)-5-(trifluoromethyl)pyrimidin-2-yl]amino]indazol-1-yl]-2-methyl-propan-2-ol]
IC50: < 0.05 µM

CNc1nc(Nc2cn(CC#N)c3cnccc23)ncc1C(F)(F)F [Example 131, 2-[3-[[4-(methylamino)-5-(trifluoromethyl)pyrimidin-2-yl]amino]pyrrolo[2,3-c]pyridin-1-yl]acetonitrile]
IC50: < 0.05 µM

CNc1nc(Nc2ccnc3ccnn23)ncc1C(F)(F)F [Example 115, N^4-methyl-N^2-pyrazolo[1,5-a]pyrimidin-7-yl-5-(trifluoromethyl)pyrimidine-2,4-diamine]
IC50: ≥ 0.2 µM

CNc1nc(Nc2cccc3c2cnn3S(C)(=O)=O)ncc1C(F)(F)F [Example 101]
IC50: < 0.05 µM

CNc1nc(Nc2cc(/C=C/C(=O)N3CCOCC3)cc3[nH]ncc23)ncc1C(F)(F)F [Example 52]
IC50: < 0.05 µM

CCn1ncc2c(Nc3ncc(C(F)(F)F)c(NC4CC4)n3)cccc21 [Example 99, N4-cyclopropyl-N2-(1-ethyl-1H-indazol-4-yl)-5-(trifluoromethyl)pyrimidine-2,4-diamine]
IC50: < 0.05 µM

CNc1nc(Nc2cc(C#N)cc3[nH]ncc23)ncc1C(F)(F)F [Example 49, 4-((4-(methylamino)-5-(trifluoromethyl)pyrimidin-2-yl)amino)-1H-indazole-6-carbonitrile]
IC50: < 0.05 µM

CNc1nc(Nc2ccc3c4c2cnn4CCCO3)ncc1C(F)(F)F [Example 161]
IC50: < 0.05 µM

CNc1nc(Nc2cccc3nncn23)ncc1C(F)(F)F [Example 124, N^4-methyl-N^2-([1,2,4]triazolo[4,3-a]pyridin-5-yl)-5-(trifluoromethyl) pyrimidine-2,4-diamine]
IC50: ≥ 0.2 µM

CNc1nc(Nc2nn(C)c3ccccc23)ncc1C(F)(F)F [Example 67, N4-methyl-N2-(1-methyl-1H-indazol-3-yl)-5-(trifluoromethyl)pyrimidine-2,4-diamine]
IC50: ≥ 0.2 µM

C[C@@]1(n2ncc3c(Nc4ncc(C(F)(F)F)c(NC5CC5)n4)cccc32)CCOC1=O [Example 166, (R)-3-(4-((4-(cyclopropylamino)-5-(trifluoromethyl)pyrimidin-2-yl)amino)-1H-indazol-1-yl)-3-methyldihydrofuran-2(3H)-one]
IC50: < 0.05 µM

CNc1nc(Nc2cc(CC#N)cc3c2cnn3C)ncc1C(F)(F)F [Example 51, 2-(1-methyl-4-((4-(methylamino)-5-(trifluoromethyl)pyrimidin-2-yl)amino)-1H-indazol-6-yl)acetonitrile]
IC50: < 0.05 µM

CNc1nc(Nc2cc3[nH]ncc3cc2OC)ncc1C(F)(F)F [Example 3, N2-(5-methoxy-1H-indazol-6-yl)-N4-methyl-5-(trifluoromethyl)pyrimidine-2,4-diamine]
IC50: < 0.05 µM

CNc1cc(Nc2nn(C)c3ncncc23)ncc1C(F)(F)F [Example 128, N^4-methyl-N^2-(1-methyl-1H-pyrazolo[3,4-d]pyrimidin-3-yl)-5-(trifluoromethyl)pyridine-2,4-diamine]
IC50: 0.05 to 0.2 µM

CNc1nc(Nc2cc3nn(C)cc3cc2C)ncc1C(F)(F)F [Example 18, N2-(2,5-dimethyl-2H-indazol-6-yl)-N4-methyl-5-(trifluoromethyl)pyrimidine-2,4-diamine]
IC50: 0.05 to 0.2 µM

CNc1nc(Nc2ccc(C3=CCN(C)CC3)c3c2cnn3CC(N)=O)ncc1C(F)(F)F [Example 100, 2-(7-(1-methyl-1,2,3,6-tetrahydropyridin-4-yl)-4-((4-(methylamino)-5-(trifluoromethyl)pyrimidin-2-yl)amino)-1H-indazol-1-yl)acetamide]
IC50: < 0.05 µM

FC(F)(F)c1cnc(Nc2ccc3c4c2cnn4CCO3)nc1NC1CC1 [Example 179, N^4-cyclopropyl-N^2-(2,3-dihydro-[1,4]oxazino[2,3,4-hi]indazol-7-yl)-5-(trifluoromethyl)pyrimidine-2,4-diamine]
IC50: < 0.05 µM

CNc1nc(Nc2ccc3cn(C)nc3c2OC)ncc1C(F)(F)F [Example 20, N2-(7-methoxy-2-methyl-2H-indazol-6-yl)-N4-methyl-5-(trifluoromethyl)pyrimidine-2,4-diamine]
IC50: < 0.05 µM

CNc1nc(Nc2cccc3c2cnn3CC(C)(C)O)nc2[nH]cnc12 [Example 184, 2-methyl-1-[4-[[6-(methylamino)-9H-purin-2-yl]amino]indazol-1-yl]propan-2-ol]
IC50: < 0.05 µM

CNc1nc(Nc2cc(C)cc3[nH]ncc23)ncc1C(F)(F)F [Example 24, N4-methyl-N2-(6-methyl-1H-indazol-4-yl)-5-(trifluoromethyl)pyrimidine-2,4-diamine]
IC50: < 0.05 µM

CNc1nc(Nc2ccc3c(Br)nn(C)c3c2)ncc1C(F)(F)F [Example 10, N^2-(3-bromo-1-methyl-1H-indazol-6-yl)-N^4-methyl-5-(trifluoromethyl) pyrimidine-2,4-diamine]
IC50: < 0.05 µM

CS(=O)(=O)CCn1ncc2c(Nc3ncc(C(F)(F)F)c(NC4CC4)n3)ccc(F)c21 [Example 177, N^4-cyclopropyl-N^2-[7-fluoro-1-(2-methylsulfonylethyl)indazol-4-yl]-5-(trifluoromethyl)pyrimidine-2,4-diamine]
IC50: < 0.05 µM

CNc1nc(Nc2ccc3c4c2cnn4CCO3)ncc1C(F)(F)F [Example 178, N^4-methyl-N^2-(9-oxa-1,2-diazatricyclo[6.3.1.04,12]dodeca-2,4,6,8(12)-tetraen-5-yl)-5-(trifluoromethyl)pyrimidine-2,4-diamine]
IC50: < 0.05 µM

CNc1nc(Nc2c(C)ccc3nn(C)cc23)ncc1C(F)(F)F [Example 39, N2-(2,5-dimethyl-2H-indazol-4-yl)-N4-methyl-5-(trifluoromethyl)pyrimidine-2,4-diamine]
IC50: ≥ 0.2 µM

CS(=O)(=O)CCn1ncc2c(Nc3ncc(C(F)(F)F)c(NCC4CC4)n3)cccc21 [Example 187, N^4-(cyclopropylmethyl)-N^2-(1-(2-(methylsulfonyl)ethyl)-1H-indazol-4-yl)-5-(trifluoromethyl)pyrimidine-2,4-diamine]
IC50: < 0.05 µM

O=S(=O)(C1CC1)n1ncc2c(Nc3ncc(C(F)(F)F)c(NCCF)n3)cccc21 [Example 137, N^2-(1-(cyclopropylsulfonyl)-1H-indazol-4-yl)-N^4-(2-fluoroethyl)-5-(trifluoromethyl) pyrimidine-2,4-diamine]
IC50: < 0.05 µM

CNc1nc(Nc2ccc3nn(C)cc3c2)ncc1C(F)(F)F [Example 74, N4-methyl-N2-(2-methyl-2H-indazol-5-yl)-5-(trifluoromethyl)pyrimidine-2,4-diamine]
IC50: < 0.05 µM

CNc1nc(Nc2cc(CCC(=O)N3CCOCC3)cc3[nH]ncc23)ncc1C(F)(F)F [Example 53, 3-(4-((4-(methylamino)-5-(trifluoromethyl)pyrimidin-2-yl)amino)-1H-indazol-6-yl)-1-morpholinopropan-1-one]
IC50: 0.05 to 0.2 µM

CS(=O)(=O)CCn1ncc2c(Nc3ncc(C(F)F)c(NC4CC4)n3)cccc21 [Example 192, N^4-cyclopropyl-5-(difluoromethyl)-N^2-[1-(2-methylsulfonylethyl)indazol-4-yl]pyrimidine-2,4-diamine]
IC50: < 0.05 µM

CNc1nc(Nc2ccc(C3=CCN(C)CC3)c3c2cnn3C)ncc1C(F)(F)F [Example 81, N4-methyl-N2-(1-methyl-7-(1-methyl-1,2,3,6-tetrahydropyridin-4-yl)-1H-indazol-4-yl)-5-(trifluoromethyl)pyrimidine-2,4-diamine]
IC50: < 0.05 µM

CNc1nc(Nc2c(C)n(C)c3ccccc23)ncc1C(F)(F)F [Example 64, N2-(1,2-dimethyl-1H-indol-3-yl)-N4-methyl-5-(trifluoromethyl)pyrimidine-2,4-diamine]
IC50: 0.05 to 0.2 µM

CNc1nc(Nc2cc3[nH]ncc3cc2Cl)ncc1C(F)(F)F [Example 116]
IC50: < 0.05 µM

— US20240174647A1 (NEURON23, INC., priority 2022, published 2024)
